In BindingDB's records for doi:10.1126/scitranslmed.abb5883 (University of North Carolina at Chapel Hill, 2020):
pIC50: −log10 of the molar value. Several values for one entry are separate records, joined by “and”; a condition that tells them apart may be missing. Identical values can stand only once.

Assays:
[1] = target: T1, Replicase polyprotein 1ab (Severe acute respiratory syndrome coronavirus 2, UniProt P0DTD1); assay: SARS-CoV-2 in Vero E6
Procedure: Vero E6 cells were plated at 20,000 cells/well in a 96-well plate. 24hr later, medium containing a dose response of NHC was added concurrent with SARS-CoV-2 (2019-nCoV/USA-WA1/2020 strain) at an MOI of 0.05. 48 hours post infection, cell viability was measured by CellTiter Glo assay.

[2] = target: T1, Replicase polyprotein 1ab; assay: SARS-CoV-2 in Calu-3
Procedure: Calu-3 2B4 cells were adsorbed with MOI 0.1 PFU/cell of SARS-CoV-2 (2019-nCoV/USA-WA1/2020 strain) at 37°C. Plates were manually rocked every 10 min to redistribute the inoculum. After 30 min, virus inoculum was removed, cells were washed with Phosphate buffered saline (PBS) once to remove unbound virus, medium containing NHC or vehicle control (DMSO) was added back onto the cells, and cells were incubated for 72 hours at 37°C.

## O=c1nc(NO)ccn1[C@@H]1O[C@H](CO)[C@@H](O)[C@H]1O [NHC]
[1]
  pIC50: 6.52
[2]
  pIC50: 7.10 and 7.05
